The target in data set [1] is Pasteurella multocida PmST1 double mutant E271F/R313Y of SEQ ID NO: 13 (E247F/R289Y of Δ24PmST1, SEQ ID NO: 11) (Pasteurella multocida, UniProt Q15KI8, E271F/R313Y). Briefly: α2-3-sialyltransferase activity, LacβMU as acceptor. Format: biochemical. The note with it: apparent, acceptor, CMP-Neu5Ac 1 mM, Tris-HCl pH 8.5, 37° C. The method, then:
(§1) To obtain the apparent kinetic parameters of LacβMU as the acceptor for the α2-3-sialyltransferase activity, the kinetic assays were performed in duplicate in reaction mixtures of 10 μL containing Tris-HCl buffer (100 mM, pH 8.5), a fixed concentration of CMP-Neu5Ac (1 mM), different concentrations of LacβMU (0.2, 0.5, 1.0, 2.0, 5.0, and 9.0 mM) and the mutant proteins (2 μg mL^−1 of E271F, 2 μg mL^−1 of R313Y, and 1.6 μg mL^−1 of E271F/R313Y). All reactions were allowed to proceed at 37° C. for 5 min (E271F), 7 min (R313Y), and 10 min (E271F/R313Y). The apparent kinetic parameters were obtained by fitting the experimental data (the average values of duplicate assay results) into the Michaelis-Menten equation using Grafit 5.0.
(§2) To obtain the apparent kinetic parameters of CMP-Neu5Ac as the donor for the α2-3-sialyltransferase activity, the kinetic assays were performed in duplicate in reaction mixtures of 10 μL containing Tris-HCl buffer (100 mM, pH 8.5), a fixed concentration of LacβMU (1 mM), different concentrations of CMP-Neu5Ac (0.1, 0.2, 0.5, 1.0, 2.0, 5.0, 10.0 and 20.0 mM) and the mutant proteins (2 μg mL^−1 of E271F, 2 μg mL^−1 of R313Y, and 1.6 μg mL^−1 of E271F/R313Y). All reactions were allowed to proceed at 37° C. for 2 min (E271F), 7 min (R313Y), and 5 min (E271F/R313Y). The apparent kinetic parameters were obtained by fitting the experimental data (the average values of duplicate assay results) into the Michaelis-Menten equation using Grafit 5.0.
(§3) All the sialidase and α2-3-sialyltransferase assays were performed in an HPLC system. Reactions were stopped by adding 10 μL of ethanol. After necessary dilutions were performed to adjust the concentrations of the fluorescent-labeled compounds, the samples were then kept on ice until aliquots of 8 μL were injected and analyzed by a Shimadzu LC-6AD system equipped with a membrane on-line degasser, a temperature control unit, and a fluorescence detector (Shimadzu RF-10AXL). A reverse-phase Premier C18 column (250×4.6 mm i.d., 5 μm particle size, Shimadzu) protected with a C18 guard column cartridge was used. The mobile phase was 25% acetonitrile. The fluorescent compounds LacβMU and Neu5Acα2-3LacβMU were detected by excitation at 325 nm and emission at 372 nm.

Data set [2] has as its target Pasteurella multocida PmST1 mutant E271F of SEQ ID NO: 13 (E247F of Δ24PmST1, SEQ ID NO: 7) (Pasteurella multocida, UniProt Q15KI8, E271F). The data set is described as above. The format is biochemical. The note with it: apparent, acceptor, CMP-Neu5Ac 1 mM, Tris-HCl pH 8.5, 37° C. The method, then: as §1, §2, §3
The target in data set [3] is Pasteurella multocida PmST1 mutant R313Y of SEQ ID NO: 13 (R289Y of Δ24PmST1, SEQ ID NO: 9) (Pasteurella multocida, UniProt Q15KI8, R313Y). Described as above. The format is biochemical. The note with it: apparent, acceptor, CMP-Neu5Ac 1 mM, Tris-HCl pH 8.5, 37° C. The method, then: as §1, §2, §3
The target of data set [4] is T1, Pasteurella multocida PmST1 mutant M144D of SEQ ID NO: 13 (M120D of Δ24PmST1, SEQ ID NO: 3) (Pasteurella multocida, UniProt Q15KI8, M144D). The description is as above. Format: biochemical. The following applies: apparent, acceptor, CMP-Neu5Ac 1 mM, Tris-HCl pH 8.5, 37° C. The method, then: (§4) Site-directed mutagenesis, expression and purification of PmST1 mutants. Site-directed mutagenesis was performed using the QuikChange multi-site-directed mutagenesis kit from Stratagene according to the manufacturer's protocol. The primers used were 5′-[…]-3′ (SEQ ID NO:35) for M144D; 5′-[…]a[…] -3′ (SEQ ID NO:36) for M144H; 5′-[…]-3′ (SEQ ID NO:37) for A35D; and 5′-[…]-3′ (SEQ ID NO:38) for A35H. The expression and purification of the mutants were performed as previously described for the WT PmST1 .
(§5) Kinetics of the α2-3-sialyltransferase activity of PmST1 mutants by HPLC analysis. With LacβMU as the acceptor substrate, the reactions were performed in duplicate at 37° C. for 10 min (M144D) or 4 min (M144H) in a reaction mixture (10 μL) containing Tris-HCl (100 mM, pH 8.5), an enzyme (5 μg mL^−1), and different concentrations (0.2, 0.5, 1.0, 2.0, and 5.0 mM) of LacβMU with a fixed concentration (1 mM) of CMP-Neu5Ac or different concentrations (0.2, 0.5, 1.0, 2.0, 5.0, and 10.0 mM) of CMP-Neu5Ac with a fixed concentration (1 mM) of LacβMU. With Le^xβMU as the acceptor substrate, the reactions were carried out in duplicate at 37° C. for 9 min (M144D) or 10 min (M144H) in a reaction mixture (10 μL) containing CAPSO (100 mM, pH 9.5), an enzyme (M144D, 39 μg mL^−1 or M144H, 5 μg mL^−), and various concentrations of Le^xβMU (1.0, 5.0, 10.0, 15.0, 25.0, and 35.0 mM) with a fixed concentration (1 mM) of CMP-Neu5Ac or various concentrations (0.2, 0.5, 1.0, 2.0, 5.0, 10.0, 20.0, and 40.0 mM) of CMP-Neu5Ac with a fixed concentration (1 mM) of Le^xβMU. Reactions were stopped by adding 10 μL of pre-chilled ethanol. The mixtures were incubated on ice for 30 min and centrifuged at 13,000 rpm for 5 min. The supernatants were diluted with 25% acetonitrile and kept on ice until aliquots of 8 μL were injected and analyzed by the Shimadzu LC-6AD system equipped with a membrane on-line degasser, a temperature control unit, and a fluorescence detector (Shimadzu RF-10AXL). A reverse-phase Premier C18 column (250×4.6 mm i.d., 5 μm particle size, Shimadzu) protected with a C18 guard column cartridge was used. The mobile phase was 25% acetonitrile. The fluorophore (MU)-labeled compounds were detected by excitation at 325 nm and emission at 372 nm. The apparent kinetic parameters were obtained by fitting the experimental data (the average values of duplicate assay results) into the Michaelis-Menten equation using Grafit 5.0.

Data set [5] concerns the target T2, Pasteurella multocida PmST1 mutant M144H of SEQ ID NO: 13 (M120H of Δ24PmST1, SEQ ID NO: 5) (Pasteurella multocida, UniProt Q15KI8, M144H). The description is as above. The format is biochemical. The following applies: apparent, acceptor, CMP-Neu5Ac 1 mM, Tris-HCl pH 8.5, 37° C. As for the experimental part: as §4, §5
Data set [6] concerns the target Pasteurella multocida α2-3-sialyltransferase 1 (PmST1), wild type (WT), SEQ ID NO: 13 (Pasteurella multocida, UniProt Q15KI8). The following applies: apparent, acceptor, read-out: Km for LacβMU; cited from earlier work.
Data set [7] has as its system CC(=O)N[C@H]1[C@H]([C@H](O)[C@H](O)CO)O[C@@](O[C@H]2[C@@H](O)[C@@H](CO)O[C@@H](O[C@H]3[C@H](O)[C@@H](O)[C@H](Oc4ccc5c(C)cc(=O)oc5c4)O[C@@H]3CO)[C@@H]2O)(C(=O)O)C[C@@H]1O. Briefly: α2-3-sialidase activity, Neu5Acα2-3LacβMU as substrate. Format: biochemical, Pasteurella multocida. The note with it: other: apparent, D141A, MES pH 5.5, 37° C., 60 min. As for the experimental part:
Kinetic Assays. […] The apparent kinetic parameters were obtained by fitting the experimental data (the average values of duplicate assay results) into the Michaelis-Menten equation using Grafit 5.0.
as §3

For data set [8], the system named is CC(=O)N[C@H]1[C@H]([C@H](O)[C@H](O)CO)O[C@](OP(=O)(O)OC[C@H]2O[C@@H](n3ccc(N)nc3=O)[C@H](O)[C@@H]2O)(C(=O)O)C[C@@H]1O. Briefly: purified protein, by the assay type. The note with it: other: apparent, donor hydrolysis, D141A, Tris-HCl pH 8.5, 37° C., 40 min.
Procedure: The reactions were stopped by adding 10 μL of pre-chilled ethanol. The mixtures were incubated on ice for 30 min and centrifuged at 13,000 rpm for 5 min. The supernatants were diluted with borate buffer (25 mM, pH 9.5) and aliquotes of 5 μL each were injected to a Beckman Coulter P/ACE™ MDQ Capillary Electrophoresis system equipped with a capillary (60 cm×75 μm i.d.) and monitored at 254 nm. The apparent kinetic parameters were obtained by fitting the experimental data (the average values of duplicate assay results) into the Michaelis-Menten equation using Grafit 5.0.
Data set [9] deals with T1, Pasteurella multocida PmST1 mutant M144D of SEQ ID NO: 13 (M120D of Δ24PmST1, SEQ ID NO: 3). The data set can be described thus: α2-3-sialyltransferase activity, Le^xβMU as acceptor. The format is biochemical. The note with it: apparent, acceptor, CMP-Neu5Ac 1 mM, CAPSO pH 9.5, 37° C. As for the experimental part:
as §4, §5

Data set [10] has as its target T2, Pasteurella multocida PmST1 mutant M144H of SEQ ID NO: 13 (M120H of Δ24PmST1, SEQ ID NO: 5). The data set is described as above. The format is biochemical. The following applies: apparent, acceptor, CMP-Neu5Ac 1 mM, CAPSO pH 9.5, 37° C. The method, then: as §4, §5

The text below walks through data of patent US9255257B2, “PmST1 mutants for chemoenzymatic synthesis of sialyl lewis X compounds” (THE REGENTS OF THE UNIVERSITY OF CALIFORNIA, priority 2011, dated 2016).

The term Km denotes the concentration of substrate that gives half-maximal velocity. For the compound `Cc1cc(=O)oc2cc(O[C@@H]3O[C@H](CO)[C@@H](O[C@@H]4O[C@H](CO)[C@H](O)[C@H](O)[C@H]4O)[C@H](O)[C@H]3O)ccc12` [LacβMU, 4-methylumbelliferyl β-lactoside], the “kcat (LacβMU)” value was found to be 17 ± 1 s⁻¹ in data set [1]; 28 ± 1 s⁻¹ in [2]; 19 ± 1 s⁻¹ in data set [3]; 22 ± 1 s⁻¹ in data set [4]; 21 ± 1 s⁻¹ in [5]. The Km in [6] was 1400 µM.
“Pasteurella multocida PmST1 mutant D141A (Pasteurella multocida; D141A)”: the Michaelis constant (Km) came to 15000 ± 1000 µM in data set [7] and 1400 ± 200 µM in data set [8].
For `CC(=O)N[C@H]1[C@H](Oc2ccc3c(C)cc(=O)oc3c2)O[C@H](CO)[C@@H](O[C@@H]2O[C@H](CO)[C@H](O)[C@H](O)[C@H]2O)[C@@H]1O[C@@H]1O[C@@H](C)[C@@H](O)[C@@H](O)[C@@H]1O` [Le^xβMU, 4-methylumbelliferyl β-Le^x], the “kcat (Le^xβMU)” value was 4.0 ± 0.2 s⁻¹ in data set [9] and 8.4 ± 0.3 s⁻¹ in data set [10].
